From patent publication US10023565B2, “N,N′ substituted piperidinamine compounds, and preparation method and usage thereof” (Institute of Pharmacology and Toxicology Academy of …, priority 2013, dated 2018)
Like-named read-outs stand apart in the source and are kept apart here. Each block holds one compound with its values, some of them ahead of it.

Assays:
Huh-7 = test: Extended test against tumor cell lines (ATPlite); format: cell-based; settings: Huh-7 (liver cancer), 72 hours
Method: (§1) The compounds of Examples 36/37/40/47/49 were used to carry out extended test against tumor cell lines, wherein 12 kinds of cells were selected, including liver cancer cells, gastric cancer cells, pancreatic cancer cells, colorectal cancer cells, lung cancer cells and normal cells, which were shown in Table 12:
(§2) A 100 mm culture dish with overgrown adherent cells was digested with 1 ml 0.25% trypsin (GIBCO) at 37° C. for 5 min, and the reaction was terminated with 2 ml culture medium (containing 10% FBS, GIBCO). The cells were scattered and collected, after counting, diluted to 1×10^5 cells/ml, and seeded into a 96-well plate at 50 μl/well, 5000 cells/well, excluding the peripheral circle of wells in which no cell was added, but PBS was added, 54 wells in total, and then incubated at 37° C. for 24 hours for adhering.
(§3) The test sample was diluted to final concentration of 4, 1, 0.25, 0.063, 0.016 μM, culture medium was filled in control well, 3 parellel wells were set for each concentration, 50 μl each well, followed by incubation at 37° C. for 72 hours.
(§4) 3) Test after incubation at 37° C. for 72 hours: 50 μL of ATPlite kitsubstrate solution was added in each well, and vibrated for 3 min, followed by placing aside in darkness for 10 min, and then supernatant 100 μl/well was taken and placed on a luminescence test plate; the luminescence test plate that has been fully incubated was placed in a luminescence test instrument, to read luminescence value.
(§5) Cell survival rate (%)=Experimental group RLU/control group RLU×100%. The experimental data were subjected to data analysis and processing by utilizing GraphPad software.

AsPC-1 = test: Extended test against tumor cell lines (ATPlite); format: cell-based; settings: AsPC-1 (pancreatic cancer), 72 hours
Method: as §1, §2, §3, §4, §5

HT-29 = test: Extended test against tumor cell lines (ATPlite); format: cell-based; settings: HT-29 (colorectal cancer), 72 hours
Method: as §1, §2, §3, §4, §5

MIA-PaCa-2 = test: Extended test against tumor cell lines (ATPlite); format: cell-based; settings: MIA-PaCa-2 (pancreatic cancer), 72 hours
Method: as §1, §2, §3, §4, §5

A549 = test: Extended test against tumor cell lines (ATPlite); format: cell-based; settings: A549 (lung cancer), 72 hours
Method: as §1, §2, §3, §4, §5

N87 = test: Extended test against tumor cell lines (ATPlite); format: cell-based; settings: N87 (gastric cancer), 72 hours
Method: as §1, §2, §3, §4, §5

H460 = test: Extended test against tumor cell lines (ATPlite); format: cell-based; settings: H460 (lung cancer), 72 hours
Method: as §1, §2, §3, §4, §5

BGC823 = test: Extended test against tumor cell lines (ATPlite); format: cell-based; settings: BGC823 (gastric cancer), 72 hours
Method: as §1, §2, §3, §4, §5

COLO205 = test: Extended test against tumor cell lines (ATPlite); format: cell-based; settings: COLO205 (colorectal cancer), 72 hours
Method: as §1, §2, §3, §4, §5

[1] = test system: MRC5 (lung epithelial fibroblast); test: Extended test against tumor cell lines (ATPlite); format: cell-based; settings: MRC5 (normal cells), 72 hours
Method: as §1, §2, §3, §4, §5

BT/Lap^R1.0 = test: Antitumor bioactivity evaluation, breast cancer cells (ATPlite); format: cell-based, human; settings: for inhibition at 5 µM: test sample 5 μM, 72 hours, read-out: Inhibitory Rate % BT/Lap^R1.0
In short: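 5000 cells/well, 24 h adhesion; cpd 5 μM final ± lapatinib 1 μM final; 72 h, 37 °C; ATPlite luminescence; survival % = sample RLU/control RLU ×100; 5 replicate wells.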

[2] = test system: tumor cells and normal cells (12 kinds of cells); test: Extended test against tumor cell lines, statements on the whole panel; format: cell-based; settings: for inhibition of tumor cells versus cytotoxicity to normal cells: 12 kinds of cells, 0.016-4 μM, 72 hours
Method: as §1, §2, §3, §4, §5

[3] = test system: six human breast cancer cell strains; test: Antitumor activity evaluation, statements on the whole panel; format: cell-based; settings: compound alone
Excerpt: In antitumor activity evaluation, six human breast cancer cell strains are selected, including BT474, SK-BR3 which are human breast cancer cell strains sensitive to lapatinib, BT/Lap^R1.0, SK/Lap^R1.0 which are human breast cancer cell strains with secondary resistance to lapatinib, MDA-MB-361, MDA-MB-453 which are human breast cancer cell strains with natural resistance tolapatinib.
Antitumor bioactivity evaluation of the compounds of Examples according to the method described below
as §2, with “Cells plating: a” for “A”, “60” for “54”
Addition of the compound and lapatinib: the test sample was diluted to a final concentration of 5 μM, and the culture medium with the corresponding compound solvent concentration was filled in the control well, the compound solvent concentration was kept consistent in each well, 5 parellel wells were set for each concentration, 25 μl each well, 25 μl culture medium (in combined group, 25 μl lapatinib was added till a final concentration of 1 μM) supplemented, followed by incubation at 37° C. for 72 hours.
as §4, with “Test” for “3) Test”, “ATPlite kit substrate” for “ATPlite kitsubstrate”, “on aluminescence” for “on a luminescence”
1. Cell survival rate (%)=Experimental group RLU/control group RLU×100%. The experimental data were subjected to data analysis and processing by utilizing GraphPad software.

IC50 (BT/Lap^R1.0; Homo sapiens): 1.7 µM
SMILES: CSc1nccc(N2CCC(N(C)Cc3ccccc3Cl)CC2)n1 [Example 47, N-methyl-N-(2-chlorobenzyl)-N-[1-(2-methylthiopyrimidin-4-yl)piperidin-4-yl]amine]
Survival rate (Huh-7; 0.016 μM): 91.1% | Survival rate (Huh-7; 0.063 μM): 88.3% | Survival rate (Huh-7; 0.25 μM): 81.4% | Survival rate (Huh-7; 1 μM): 65.9% | Survival rate (Huh-7; 4 μM): 16.7% | Survival rate (AsPC-1; 0.016 μM): 100.2% | Survival rate (AsPC-1; 0.063 μM): 94.7% | Survival rate (AsPC-1; 0.25 μM): 92.8% | Survival rate (AsPC-1; 1 μM): 85.3% | Survival rate (AsPC-1; 4 μM): 53.6% | Survival rate (HT-29; 0.016 μM): 102.8% | Survival rate (HT-29; 0.063 μM): 102.1% | Survival rate (HT-29; 0.25 μM): 101.6% | Survival rate (HT-29; 1 μM): 93.1% | Survival rate (HT-29; 4 μM): 48.8% | Survival rate (MIA-PaCa-2; 0.016 μM): 98.5% | Survival rate (MIA-PaCa-2; 0.063 μM): 99.3% | Survival rate (MIA-PaCa-2; 0.25 μM): 97.4% | Survival rate (MIA-PaCa-2; 1 μM): 88.5% | Survival rate (MIA-PaCa-2; 4 μM): 24.5% | Survival rate (A549; 0.016 μM): 98.1% | Survival rate (A549; 0.063 μM): 95.3% | Survival rate (A549; 0.25 μM): 93% | Survival rate (A549; 1 μM): 88.7% | Survival rate (A549; 4 μM): 45.9% | Survival rate (N87; 0.016 μM): 89.6% | Survival rate (N87; 0.063 μM): 91.3% | Survival rate (N87; 0.25 μM): 87.8% | Survival rate (N87; 1 μM): 68.6% | Survival rate (N87; 4 μM): 34.8% | Survival rate (H460; 0.016 μM): 99% | Survival rate (H460; 0.063 μM): 99.8% | Survival rate (H460; 0.25 μM): 99.3% | Survival rate (H460; 1 μM): 90.6% | Survival rate (H460; 4 μM): 33.8% | Survival rate (BGC823; 0.016 μM): 99.8% | Survival rate (BGC823; 0.063 μM): 100.6% | Survival rate (BGC823; 0.25 μM): 98.4% | Survival rate (BGC823; 1 μM): 84.3% | Survival rate (BGC823; 4 μM): 24.5% | Survival rate (COLO205; 0.016 μM): 98.2% | Survival rate (COLO205; 0.063 μM): 96.7% | Survival rate (COLO205; 0.25 μM): 97.9% | Survival rate (COLO205; 1 μM): 96.1% | Survival rate (COLO205; 4 μM): 23.3% | Survival rate ([1]; 0.016 μM): 97.3% | Survival rate ([1]; 0.063 μM): 99.5% | Survival rate ([1]; 0.25 μM): 100.3% | Survival rate ([1]; 1 μM): 92.6% | Survival rate ([1]; 4 μM): 74.8% | inhibition at 5 µM (BT/Lap^R1.0; Homo sapiens): 58.1% | inhibition of tumor cells versus cytotoxicity to normal cells [2]: slightly stronger inhibition to liver cancer than that to other tumor cells, and exhibited cytotoxicity to normal cells lower than inhibition to tumor cells | effect compared with the compounds of other Examples ([2]; Examples 36/37/40/47/49 compared): effect superior to that of the compounds of other Examples | growth inhibition to the six human breast cancer cell strains [3]: relatively significant growth inhibition

SMILES: CSc1nccc(N2CCC(N(C)Cc3ccc(C#N)cc3)CC2)n1 [Example 36, N-methyl-N-(4-cyanobenzyl)-N-[1-(2-methylthiopyrimidin-4-yl)piperidin-4-yl]amine]
Survival rate (Huh-7; 0.016 μM): 90.9% | Survival rate (Huh-7; 0.063 μM): 88.2% | Survival rate (Huh-7; 0.25 μM): 83.0% | Survival rate (Huh-7; 1 μM): 65.4% | Survival rate (Huh-7; 4 μM): 14.3% | Survival rate (AsPC-1; 0.016 μM): 96.8% | Survival rate (AsPC-1; 0.063 μM): 99.4% | Survival rate (AsPC-1; 0.25 μM): 94.9% | Survival rate (AsPC-1; 1 μM): 90.0% | Survival rate (AsPC-1; 4 μM): 57.2% | Survival rate (HT-29; 0.016 μM): 97.5% | Survival rate (HT-29; 0.063 μM): 94.3% | Survival rate (HT-29; 0.25 μM): 90.9% | Survival rate (HT-29; 1 μM): 79.0% | Survival rate (HT-29; 4 μM): 27.1% | Survival rate (MIA-PaCa-2; 0.016 μM): 91.6% | Survival rate (MIA-PaCa-2; 0.063 μM): 92.2% | Survival rate (MIA-PaCa-2; 0.25 μM): 91.2% | Survival rate (MIA-PaCa-2; 1 μM): 66.0% | Survival rate (MIA-PaCa-2; 4 μM): 22.2% | Survival rate (A549; 0.016 μM): 98.9% | Survival rate (A549; 0.063 μM): 97.6% | Survival rate (A549; 0.25 μM): 95.3% | Survival rate (A549; 1 μM): 75.8% | Survival rate (A549; 4 μM): 46.5% | Survival rate (N87; 0.016 μM): 92.9% | Survival rate (N87; 0.063 μM): 96.7% | Survival rate (N87; 0.25 μM): 97.2% | Survival rate (N87; 1 μM): 77.1% | Survival rate (N87; 4 μM): 40.3% | Survival rate (H460; 0.016 μM): 99.4% | Survival rate (H460; 0.063 μM): 99.3% | Survival rate (H460; 0.25 μM): 97.3% | Survival rate (H460; 1 μM): 93.6% | Survival rate (H460; 4 μM): 19.1% | Survival rate (BGC823; 0.016 μM): 96.6% | Survival rate (BGC823; 0.063 μM): 93.2% | Survival rate (BGC823; 0.25 μM): 89.1% | Survival rate (BGC823; 1 μM): 74.3% | Survival rate (BGC823; 4 μM): 27.7% | Survival rate (COLO205; 0.016 μM): 96.7% | Survival rate (COLO205; 0.063 μM): 96.9% | Survival rate (COLO205; 0.25 μM): 95.3% | Survival rate (COLO205; 1 μM): 84.5% | Survival rate (COLO205; 4 μM): 4.9% | Survival rate ([1]; 0.016 μM): 96.8% | Survival rate ([1]; 0.063 μM): 96.1% | Survival rate ([1]; 0.25 μM): 91.0% | Survival rate ([1]; 1 μM): 76.1% | Survival rate ([1]; 4 μM): 39.1% | IC50 (BT/Lap^R1.0): 1.47 µM | IC50 (BT/Lap^R1.0; Homo sapiens): 1.41 µM | inhibition at 5 µM (BT/Lap^R1.0; Homo sapiens): 76.2% | inhibition of tumor cells versus cytotoxicity to normal cells [2]: certain inhibition and cytotoxicity to either tumor cells or normal cells, without significant difference | growth inhibition to the six human breast cancer cell strains [3]: relatively significant growth inhibition
